Data as given in patent US20260144807A1, “METHOD OF ADMINISTRATION OF A PARENTERAL FORMULATION COMPRISING A P[…]” (Cybin UK LTD, priority 2022, published 2026).

How the values were obtained:
[1] = tested on: patients with major depressive disorder; experiment: D'Souza et al. HAMD-17 scores; format: in vivo, human; settings: 1 day after final administration of 0.1 and 0.3 mg/kg doses
Experimental: D'Souza et al report an ‘exploratory study of the dose-related safety, tolerability, and efficacy of dimethyltryptamine (DMT) in healthy volunteers and major depressive disorder’ (D. C. D'Souza, S. A. Syed, L. T. Flynn, H. Safi-Aghdam, N. V. Cozzi and M. Ranganathan, Neuropsychopharmacology (2022) 47:1854-1862). Seven patients with major depressive disorder received two doses of DMT hemifumarate (0.1 mg/kg, followed by 0.3 mg/kg) at least 48 hours apart. The participants were administered DMT by intravenous push over 30-60 seconds, i.e., a bolus injection.
D'Souza et al report that the mean change in HAMD-17 scores between baseline (7 subjects) and 1 day after final administration of both a 0.1 mg/kg and a 0.3 mg/kg dose (6 subjects) was −4.5 (Table S6). This improvement approximates to an improvement on the MADRS scale of −3.9.

healthy participants = experiment: Perceived duration of the psychedelic experience; format: in vivo, human; settings: 9 mg IV
Text: The onset and cessation of the psychedelic experience may be assessed by the attending clinician, psychiatrist or therapist. ‘Duration of the psychedelic experience’ as used herein refers to the time from the start of the continuous parenteral administration to the cessation of the psychedelic experience. The duration of the psychedelic experience may vary between patients. The term ‘duration’ as used herein, encompasses the mean duration of the psychedelic experience.
The safety and tolerability of a single intravenous dose of a deuterated analogue of DMT is being investigated in healthy participants in an on-going clinical trial. The administration of the deuterated analogue of DMT is in accordance with the present invention. Tolerability is assessed post-psychedelic experience by the question ‘Do you wish you had not gone through that experience?’.
A 9 mg dose of the deuterated analogue was administered in accordance with the present invention to a cohort of 6 psychedelic-experienced healthy participants. Preliminary data were compared with pharmacokinetic data from Part A of NCT04673383, Cohort 1 (9 mg DMT fumarate).
IRVAS is a rating scale which measures the intensity of the psychedelic experience. Additionally, the perceived duration of the psychedelic experience was in the range 37-57 minutes for the deuterated analogue, compared with approximately 25 minutes for DMT.

[2] = tested on: patients with major depressive disorder; settings: baseline (7 subjects) vs 1 day after final administration of 0.1 mg/kg and 0.3 mg/kg doses (6 subjects); cited from earlier work
[3] = tested on: healthy volunteer participants; settings: all three healthy volunteers, 0.3 mg/kg, IV bolus; cited from earlier work
[4] = tested on: 3 healthy volunteers and 6 patients; settings: 0.3 mg/kg, IV bolus; cited from earlier work
healthy volunteers = settings: single oral dose, interim analysis; cited from earlier work
[5] = tested on: patients with major depressive disorder; experiment: MADRS assessment, NCT04673383 Part B, IV infusion over about 10 minutes; format: in vivo, human; design: average percent reduction from baseline (MADRS) / Mean % reduction (MADRS): concentration or dose not given beside the values
Text: Therapeutic benefit or efficacy may be assessed using a rating scale. For patients with a depressive disorder such as MDD or TRD, the Montgomery-Asberg Depression Rating Scale (MADRS), the Hamilton Depression Rating Scale (HAMD-17) or the Beck's Depression Inventory (BDI-II) may be used. The rating scale is used prior to administration of the psychedelic agent, to provide a baseline assessment, and again after administration of the psychedelic agent.
(§1) A double-blind, randomised, placebo-controlled study of intravenous doses of DMT fumarate, was carried out in patients with major depressive disorder, MDD, (ClinicalTrials.gov Identifier: NCT04673383, Part B). The protocol comprised the steps of:
• MADRS assessment by an independent assessor
(§2) • Administration of either a placebo or a dose of DMT fumarate by continuous intravenous infusion over a dosing period of about 10 minutes. • Tolerability assessment following cessation of the psychedelic experience. Study Day 8 (±1 day), Study Day 15 (±1 day) • MADRS assessment
• Administration of a dose of DMT fumarate by continuous intravenous infusion over a dosing period of about 10 minutes. • Tolerability assessment following cessation of the psychedelic experience. Study Day 22 (+1 day), Study Day 29 (+2 days), Day 45 (+2 days), Day 105 (+2 days) • MADRS assessment
The administration of the study drug, DMT fumarate, in NCT04673383, Part B was in accordance with the present invention. Group A received one dose of active (DMT fumarate) on Day 1 and were assessed using MADRS at Day 8 and Day 15. Group P received a placebo on Day 1, and were also assessed at Day 8 and Day 15. This comprised the blinded phase of the study. Group P subsequently received one dose of active in the open label phase of the study on Day 15 and were assessed at Day 22 and 29. Data from this group following administration of the active dose is represented as PA.
As described above, Group A received one dose of active (DMT fumarate) on Day 1 and were assessed at Day 8 and Day 15. Group P received a placebo on Day 1, and were also assessed at Day 8 and Day 15.

[6] = tested on: patients with major depressive disorder; experiment: Beck Depression Inventory (BDI), NCT04673383 Part B; format: in vivo, human
Experimental: as §1
(§3) • Administration of either a placebo or a dose of DMT fumarate by continuous intravenous infusion over a dosing period of about 10 minutes. • Tolerability assessment following cessation of the psychedelic experience. Study Day 8 (±1 day), Study Day 15 (±1 day) • MADRS assessment […]
(§4) The administration of the study drug, DMT fumarate, in NCT04673383, Part B was in accordance with the present invention. Group A received one dose of active (DMT fumarate) on Day 1 and were assessed using MADRS at Day 8 and Day 15. Group P received a placebo on Day 1, and were also assessed at Day 8 and Day 15. […] Group P subsequently received one dose of active in the open label phase of the study on Day 15 and were assessed at Day 22 and 29. […]
Analysis of patient-reported depression scores corroborated the MADRS assessments conducted by independent clinical raters. Improvements in depression scores from baseline were observed across all study timepoints in patients receiving at least one dose of active, as measured by the Beck Depression Inventory (“BDI”). […]

[7] = tested on: patients with major depressive disorder; experiment: State-Trait Anxiety Inventory-Trait (STAI-T), NCT04673383 Part B; format: in vivo, human
Experimental: as §1, §2
• Administration of a dose of DMT fumarate by continuous intravenous infusion over a dosing period of about 10 minutes. • Tolerability assessment following cessation of the psychedelic experience. […]
as §4
Measures assessing patients' anxiety and wellbeing, areas which are often negatively impacted by depression, were also analysed across the study. […]

[8] = tested on: patients with major depressive disorder; experiment: Warwick-Edinburgh Mental Wellbeing Scale (WEMWBS), NCT04673383 Part B; format: in vivo, human
Experimental: as §1, §3, §4
Further, a rapid and sustained improvement in wellbeing was observed following administration of at least one dose of DMT fumarate in accordance with the invention, with supportive therapy, as measured by the Warwick-Edinburgh Mental Wellbeing Scale (“WEMWBS”).

healthy adults [9] = experiment: Tolerability question after psychedelic experience, NCT04673383 Part A; format: in vivo, human; settings: all healthy volunteers, highest doses tested
Text: Tolerability may be assessed following cessation of the subjective psychedelic experience by asking the patent the question ‘Do you wish you had not gone through that experience?’ Yes responses are deemed to indicate poor tolerability, while No responses are deemed to indicate good tolerability.
All patient participants in this study, after receiving one dose of DMT fumarate, answered NO to the question ‘Do you wish you had not gone through that experience?’, indicating good tolerability of the psychedelic agent. In Part A of the same study, healthy adults received single escalating doses of DMT fumarate. All healthy volunteers answered “no” to the same question at the highest doses tested.

healthy adults [10] = experiment: Challenging Experience Questionnaire (CEQ), NCT04673383 Part A; format: in vivo, human; settings: active group, healthy participants
Text: Garcia-Romeu and Richards (International review of Psychiatry, Vol. 30, 2018, issue 4, pp 291-316) discuss the use of serotonergic hallucinogens in clinical interventions and state ‘issues, such as recent suicidality, drug or alcohol use disorders, dissociative disorders, and past history of trauma should be taken into account depending on the therapeutic target, as these may be exacerbated by high-dose psychedelic administration or increase risk for adverse events. ‘They further state: Psychodynamic-autobiographical experiences are predominated by emotional recollections and reflections on significant previous or current life events and relationships. […] A patient's subjective experience may be evaluated by the Challenging Experience Questionnaire (CEQ), a questionnaire designed to measure challenging psychological experiences associated with a psychedelic experience. […]
The participant's experience was evaluated using the Challenging Experience Questionnaire (CEQ). In Part A of the study, a mean CEQ score of 0.172 was recorded for the active group, compared with a mean of 0.052 for the placebo group. […]

[11] = tested on: patients with major depressive disorder; experiment: Challenging Experience Questionnaire (CEQ), NCT04673383 Part B; format: in vivo, human
Text: Garcia-Romeu and Richards (International review of Psychiatry, Vol. 30, 2018, issue 4, pp 291-316) discuss the use of serotonergic hallucinogens in clinical interventions and state ‘issues, such as recent suicidality, drug or alcohol use disorders, dissociative disorders, and past history of trauma should be taken into account depending on the therapeutic target, as these may be exacerbated by high-dose psychedelic administration or increase risk for adverse events. ‘They further state: Psychodynamic-autobiographical experiences are predominated by emotional recollections and reflections on significant previous or current life events and relationships. […] A patient's subjective experience may be evaluated by the Challenging Experience Questionnaire (CEQ), a questionnaire designed to measure challenging psychological experiences associated with a psychedelic experience.
as §4

[12] = Drug related serious adverse events, NCT04673383; format: in vivo, human; settings: reported at the date of filing
Experimental: A double-blind, randomised, placebo-controlled study of intravenous doses of DMT fumarate, was carried out in patients with major depressive disorder, MDD, (ClinicalTrials.gov Identifier: NCT04673383, Part B).

[13] = Group PA, 2 weeks, study Day 29
[14] = day 8, blinded data for all patients (average of placebo and DMT fumarate patients)
[15] = Group PA, open label phase, Day 105

CN(C)CCc1c[nH]c2ccccc12 [DMT, 2-(1H-indol-3-yl)-N,N-dimethylethanamine]
improvement on the MADRS scale approximated from HAMD-17 change [1]: ~−3.9
perceived duration of the psychedelic experience (healthy participants): approximately 25 minutes
mean change in HAMD-17 scores [2]: −4.5
tolerability score (0-100, 0=intolerable, 100=well tolerated) [3]: greater than 70
mean score to 'how likely are you to use this drug?' (scale 0 to 100) [4]: 22.44

[2H]C([2H])([2H])N(C([2H])([2H])[2H])C([2H])([2H])C([2H])([2H])c1c[nH]c2cccc(O)c12 [CYB003]
average duration of peak effects (healthy volunteers): ≈ 2 hours
time to psychedelic effects (healthy volunteers): ≤ 15 min

CN(C)CCc1c[nH]c2ccccc12.O=C(O)/C=C/C(=O)O [DMT fumarate, N,N-dimethyltryptamine fumarate]
difference in mean change from baseline (MADRS) between Group A and Group P ([5]; Day 8, active vs placebo, p=0.002): −10.8 points
difference in mean change from baseline (MADRS) between Group A and Group P ([5]; Day 15, active vs placebo, p=0.02): −7.4 points
Mean change from baseline (MADRS) ([5]; Group A, 1 week from active dose, study Day 8): −12.7
% of subjects with a MADRS score ≤ 10 ([5]; Group A, 1 week, study Day 8): 43.8%
% of subjects with ≥ 50% reduction from BL (MADRS) ([5]; Group A, 1 week, study Day 8): 43.8%
Mean % reduction (MADRS) ([5]; Group A, 1 week, study Day 8): −48.2%
Mean change from baseline (MADRS) ([5]; Group A, 2 weeks from active dose, study Day 15): −11.0
% of subjects with a MADRS score ≤ 10 ([5]; Group A, 2 weeks, study Day 15): 29.4%
% of subjects with ≥ 50% reduction from BL (MADRS) ([5]; Group A, 2 weeks, study Day 15): 35.3%
Mean % reduction (MADRS) ([5]; Group A, 2 weeks, study Day 15): −41.0%
Mean change from baseline (MADRS) ([5]; Group PA (open label active after placebo), 1 week from active dose, study Day 22): −10.6
% of subjects with a MADRS score ≤ 10 ([5]; Group PA, 1 week, study Day 22): 42.9%
% of subjects with ≥ 50% reduction from BL (MADRS) ([5]; Group PA, 1 week, study Day 22): 42.9%
Mean % reduction (MADRS) ([5]; Group PA, 1 week, study Day 22): −40.6%
Mean change from baseline (MADRS) ([5]; Group PA, 2 weeks from active dose, study Day 29): −10.8
% of subjects with a MADRS score ≤ 10 [5, 13]: 31.3%
% of subjects with ≥ 50% reduction from BL (MADRS) [5, 13]: 43.8%
Mean % reduction (MADRS) [5, 13]: −36.7%
difference in mean total MADRS score, statistical analysis ([5]; Group PA, all open-label study timepoints, p<0.05): statistically significant difference
average improvement on the MADRS score [5, 14]: −7.5
average percent reduction from baseline (MADRS) [5, 14]: −18.4%
Self-Reported Depression (BDI CFB) ([6]; Active, blinded phase, Day 15, p = 0.002 active vs. placebo): −17.4
Self-Reported Depression (BDI CFB) [6, 15]: −19.7
Anxiety (STAI-T CFB) ([7]; Active, blinded phase, Day 15, p = 0.03 active vs. placebo): −11.0
Anxiety (STAI-T CFB) ([7]; Group PA, open label phase, Day 105 (12-weeks following the open label dose)): −14.2
Wellbeing (WEMWBS CFB) ([8]; Active, blinded phase, Day 15 (two-weeks following blinded dose)): 10.1
Wellbeing (WEMWBS CFB) [8, 15]: 9.8
answer to 'Do you wish you had not gone through that experience?' (tolerability) (healthy adults [9]): no
mean CEQ score (healthy adults [10]): 0.172
mean CEQ score ([11]; Group A): 0.360
mean CEQ score ([11]; Group PA): 0.350
drug related serious adverse events [12]: no drug related serious adverse events
